Experimental data from US20240109865A1, “INDAZOLE COMPOUNDS AS KINASE INHIBITORS” (TYRA BIOSCIENCES, INC., priority 2020, published 2024).
Like-named read-outs stand apart in the source and are kept apart here.

What was measured:
[1] = system: RT112/84 cells (FGFR3-fusion); test: RT112/84 cancer cell line cell viability assay (CellTiter-Glo 2.0); format: cell-based; conditions: Homo sapiens, 72 hours, Cell Titer Glo 2.0
In short: (§1)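 Viability was measured as cellular ATP by CellTiter-Glo 2.0 luminescence after 72 h compound exposure, using nine 10-fold doses from 30 μM, in triplicate. Cells were plated at 10,000/well in RPMI1640 with 10% FBS the day before dosing. Signal was expressed as % of DMSO-treated control, and IC50 came from a 4-parameter fit.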

[2] = system: UM-UC-14 cells (FGFR3(S249C)); test: UM-UC-14 cancer cell line cell viability assay (CellTiter-Glo 2.0); format: cell-based; conditions: UMUC14, 72 hours, Cell Titer Glo 2.0
Description: Experimental Purpose: To detect the change of intracellular ATP by Cell Titer-Glo® and to evaluate the inhibitory effect of the compounds on cancer cell lines by determining the in vitro IC50 value of the compounds.
Cell Titer-Glo® 2.0 Luminescent cell viability assay reagent was purchased from Promega (Madison, WI). RT112/84 and KG-1 cell lines were purchased from American Type Culture Collection (Manassas, VA). UM-UC-14 cell line was purchased from Sigma (St. Louis, MO). RT112/84, UM-UC-14, and KG-1 cells were cultured in RPMI1640 media supplemented with 10% fetal bovine serum. Cultures were maintained at 37° C. in a humidified atmosphere of 5% C02 and 95% air.
Cell Viability Assay Procedure: Cells were plated in 96-well clear bottom/white plates (Corning #3903) at 10,000 cells/well in 100 μl of media, incubated overnight. The next day, test compound DMSO stock solutions were made at 10 mM and 2 μM final concentration. Compounds were then added to cells in a 9-dose, 10-fold dilution series starting at 30 μM with an HP 300e Digital Dispenser (each dose was applied in triplicate). DMSO was backfilled to each well up to 301 nL total volume of test compound+DMSO, and a total of 301 nL DMSO was added to a control/no test compound well in triplicate. The cells in cell culture plates were incubated with the compounds at 37° C. and 5% C02 for 72 hours. Then 50 μl of Cell Titer Glo 2.0 reagent was added to each well of the cell culture plates. The contents were covered from light and mixed on an orbital shaker at room temperature for 10 min. Luminescence was recorded by a Synergy H1 Microplate Reader (Biotek, Winooski, VT). Cells were assessed as a percentage of DMSO only treated control cells. Curves were plotted and IC50 values were calculated using the GraphPad Prism 8 program based on a sigmoidal dose-response equation (4 parameter).

[3] = molecular target: FGFR3-BAIAP2L1 Ba/F3 cells (Homo sapiens, UniProt P22607); test: Ba/F3 cell viability assay (CellTiter-Glo 2.0), FGFR3-BAIAP2L1 Ba/F3; format: cell-based
Chain of FGFR3-BAIAP2L1 Ba/F3 cells (P22607 23-806 limits assumed, change not shown): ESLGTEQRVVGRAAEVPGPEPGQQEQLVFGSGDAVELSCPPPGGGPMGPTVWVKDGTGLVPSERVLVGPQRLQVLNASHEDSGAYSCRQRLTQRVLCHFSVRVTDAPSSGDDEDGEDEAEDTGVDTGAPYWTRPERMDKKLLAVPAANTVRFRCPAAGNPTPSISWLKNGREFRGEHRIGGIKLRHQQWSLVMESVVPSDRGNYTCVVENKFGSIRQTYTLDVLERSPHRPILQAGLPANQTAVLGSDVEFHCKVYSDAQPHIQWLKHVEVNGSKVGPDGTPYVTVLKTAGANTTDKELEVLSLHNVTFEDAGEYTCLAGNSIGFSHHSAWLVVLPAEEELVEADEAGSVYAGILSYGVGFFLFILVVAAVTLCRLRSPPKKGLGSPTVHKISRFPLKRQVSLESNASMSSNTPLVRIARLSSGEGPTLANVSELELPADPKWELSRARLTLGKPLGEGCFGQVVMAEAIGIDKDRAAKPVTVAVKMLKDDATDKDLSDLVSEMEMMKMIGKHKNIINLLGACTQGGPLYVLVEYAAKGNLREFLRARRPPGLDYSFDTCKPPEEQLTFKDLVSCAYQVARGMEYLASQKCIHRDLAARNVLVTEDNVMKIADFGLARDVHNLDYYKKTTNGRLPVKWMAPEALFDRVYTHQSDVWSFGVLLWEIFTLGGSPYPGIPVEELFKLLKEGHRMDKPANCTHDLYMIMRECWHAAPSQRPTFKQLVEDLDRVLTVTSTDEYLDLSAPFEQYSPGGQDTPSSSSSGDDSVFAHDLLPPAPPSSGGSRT
In short: (§2)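 Viability read as ATP luminescence (CellTiter-Glo 2.0) after 48 h compound exposure, normalized to DMSO-treated cells and fitted with a 4-parameter curve for IC50. Cells: Ba/F3 dependent on FGFR1-BCR or FGFR3-BAIAP2L1 fusion kinase; top dose 30 μM, 10-fold steps, 9 doses in triplicate.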

FGFR1-BCR Ba/F3 cells = FGFR1-BCR Ba/F3 cells (Homo sapiens, UniProt P11362); test: Ba/F3 cell viability assay (CellTiter-Glo 2.0), FGFR1-BCR Ba/F3; format: cell-based
Chain of FGFR1-BCR Ba/F3 cells (P11362 22-822 limits assumed, change not shown): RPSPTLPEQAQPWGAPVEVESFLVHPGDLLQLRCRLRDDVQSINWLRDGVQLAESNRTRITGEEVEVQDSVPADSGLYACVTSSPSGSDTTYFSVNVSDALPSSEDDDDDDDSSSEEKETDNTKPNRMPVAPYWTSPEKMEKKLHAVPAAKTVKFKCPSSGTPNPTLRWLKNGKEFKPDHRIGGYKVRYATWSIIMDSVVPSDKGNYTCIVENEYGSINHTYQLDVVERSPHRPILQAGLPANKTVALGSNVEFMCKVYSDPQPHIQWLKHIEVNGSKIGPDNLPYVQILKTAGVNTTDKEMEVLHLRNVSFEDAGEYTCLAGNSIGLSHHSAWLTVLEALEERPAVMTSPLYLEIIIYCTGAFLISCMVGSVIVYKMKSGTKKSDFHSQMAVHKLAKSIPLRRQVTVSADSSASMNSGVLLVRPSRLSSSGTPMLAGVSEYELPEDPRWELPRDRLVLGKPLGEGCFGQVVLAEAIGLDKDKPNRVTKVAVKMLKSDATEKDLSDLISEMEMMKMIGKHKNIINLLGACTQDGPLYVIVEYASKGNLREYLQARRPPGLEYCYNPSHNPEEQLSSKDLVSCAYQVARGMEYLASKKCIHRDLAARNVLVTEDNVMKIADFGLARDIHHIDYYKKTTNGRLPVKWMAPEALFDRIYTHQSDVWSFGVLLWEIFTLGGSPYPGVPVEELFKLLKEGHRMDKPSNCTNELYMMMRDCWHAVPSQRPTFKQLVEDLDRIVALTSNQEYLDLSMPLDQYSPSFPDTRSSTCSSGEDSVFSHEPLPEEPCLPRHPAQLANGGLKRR
In short: as §2

[4] = system: KG-1 cells (FGFR1-fusion); test: KG-1 cancer cell line cell viability assay (CellTiter-Glo 2.0); format: cell-based; conditions: Homo sapiens, 72 hours, Cell Titer Glo 2.0
In short: as §1

FGFR2 = FGFR2 (Homo sapiens (Human), UniProt P21802); test: Kinase assay, binding constants (Kd), kinase-tagged T7 phage, qPCR
Chain of FGFR2 (P21802 22-821): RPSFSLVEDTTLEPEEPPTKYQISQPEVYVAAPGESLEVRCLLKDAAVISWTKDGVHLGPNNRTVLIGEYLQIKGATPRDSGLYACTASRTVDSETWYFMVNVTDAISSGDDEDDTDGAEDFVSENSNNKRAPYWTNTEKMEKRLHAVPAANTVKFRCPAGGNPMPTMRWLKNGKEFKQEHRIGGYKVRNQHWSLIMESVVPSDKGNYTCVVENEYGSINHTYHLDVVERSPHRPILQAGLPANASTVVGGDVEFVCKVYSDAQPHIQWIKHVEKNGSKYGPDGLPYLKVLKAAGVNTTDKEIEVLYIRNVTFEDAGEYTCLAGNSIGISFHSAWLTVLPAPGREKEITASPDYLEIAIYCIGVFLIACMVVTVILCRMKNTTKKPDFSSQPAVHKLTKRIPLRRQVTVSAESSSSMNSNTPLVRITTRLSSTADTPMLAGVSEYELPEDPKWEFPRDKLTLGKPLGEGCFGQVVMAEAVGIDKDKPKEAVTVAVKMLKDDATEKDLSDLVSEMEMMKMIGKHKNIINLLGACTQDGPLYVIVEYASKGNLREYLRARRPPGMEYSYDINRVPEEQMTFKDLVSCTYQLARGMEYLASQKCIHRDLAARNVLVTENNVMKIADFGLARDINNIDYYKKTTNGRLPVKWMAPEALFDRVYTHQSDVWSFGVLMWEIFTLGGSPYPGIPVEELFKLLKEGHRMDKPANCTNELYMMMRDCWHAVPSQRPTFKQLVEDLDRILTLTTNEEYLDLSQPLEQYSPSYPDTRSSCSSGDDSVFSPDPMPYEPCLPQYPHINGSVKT
In short: (§3)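 Using T7 phage lysates from BL21-derived E. coli, compounds at 0.9% final DMSO competed for kinase binding to ligand-bearing magnetic beads. After elution, qPCR measured remaining kinase, and Kds were fitted by non-linear least squares with the Hill slope fixed at −1.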

FGFR3 (V555M) = FGFR3 (V555M) (Homo sapiens (Human), UniProt P22607, V555M); test: as above; conditions: V555M mutant
Chain of FGFR3 (V555M) (P22607 23-806 V555M): as the sequence (P22607 23-806 limits assumed, change not shown) above, with V533M counted along it
In short: as §3

FGFR1 = FGFR1 (Homo sapiens (Human), UniProt P11362); test: as above
Chain of FGFR1 (P11362 22-822): as the sequence (P11362 22-822 limits assumed, change not shown) above
In short: as §3

FGFR4 = FGFR4 (Homo sapiens (Human), UniProt P22455); test: as above
Chain of FGFR4 (P22455 22-802): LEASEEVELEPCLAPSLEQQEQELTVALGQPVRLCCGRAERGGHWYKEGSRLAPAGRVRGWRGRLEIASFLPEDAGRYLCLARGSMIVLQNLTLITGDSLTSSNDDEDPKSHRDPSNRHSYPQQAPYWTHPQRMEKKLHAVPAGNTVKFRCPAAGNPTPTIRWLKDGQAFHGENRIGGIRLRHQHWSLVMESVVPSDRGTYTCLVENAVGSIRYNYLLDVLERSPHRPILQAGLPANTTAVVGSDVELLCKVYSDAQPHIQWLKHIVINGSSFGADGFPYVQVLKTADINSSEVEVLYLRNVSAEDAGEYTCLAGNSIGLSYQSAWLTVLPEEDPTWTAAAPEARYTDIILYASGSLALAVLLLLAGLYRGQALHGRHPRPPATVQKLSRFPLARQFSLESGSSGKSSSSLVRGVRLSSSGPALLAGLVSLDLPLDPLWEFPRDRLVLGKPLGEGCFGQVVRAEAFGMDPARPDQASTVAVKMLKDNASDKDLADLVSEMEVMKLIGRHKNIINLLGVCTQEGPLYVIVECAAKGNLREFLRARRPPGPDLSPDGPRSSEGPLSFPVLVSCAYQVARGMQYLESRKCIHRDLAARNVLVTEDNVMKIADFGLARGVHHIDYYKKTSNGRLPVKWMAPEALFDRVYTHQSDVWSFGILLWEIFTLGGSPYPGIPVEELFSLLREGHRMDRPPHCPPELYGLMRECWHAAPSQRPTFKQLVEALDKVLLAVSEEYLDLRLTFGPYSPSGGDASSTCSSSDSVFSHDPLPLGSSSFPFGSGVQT
In short: as §3

FGFR3 = FGFR3 (Homo sapiens (Human), UniProt P22607); test: as above
Chain of FGFR3 (P22607 23-806): as the sequence (P22607 23-806 limits assumed, change not shown) above
In short: as §3

[5] = FGFR3 > FGFR1 selectivity ratio in Ba/F3 FGFR fusion cell based assays
[6] = read-out: Ba/F3 Cells FGFR3 (IC50 nM); FGFR3-BAIAP2L1 Ba/F3 cells, 48 hours, Cell Titer Glo 2.0
[7] = read-out: Ba/F3 Cells FGFR1 (IC50 nM), 48 hours, Cell Titer Glo 2.0
[8] = FGFR3-BAIAP2L1 Ba/F3 cells, 48 hours, Cell Titer Glo 2.0; read-out: Ba/F3 Cells FGFR3 (IC50 nM)
[9] = 48 hours, Cell Titer Glo 2.0, read-out: Ba/F3 Cells FGFR1 (IC50 nM)

Compound | IC50 [1] | IC50 [2] | Ba/F3 FGFR1/FGFR3 Selectivity [3, 5] | IC50 [3, 6] | IC50 (FGFR1-BCR Ba/F3 cells; [7]) | IC50 [4] | Kd (FGFR2) | Kd (FGFR3 (V555M)) | Kd (FGFR1) | Kd (FGFR4) | Kd (FGFR3) | IC50 [3, 8] | IC50 (FGFR1-BCR Ba/F3 cells; [9])
C[C@@H](Oc1ccc2[nH]nc(-c3cnc(N4CCN(C(=O)N5CCN(C)CC5)CC4)nc3)c2c1)c1c(Cl)cncc1Cl [Example 15, [4-[5-[5-[(1R)-1-(3,5-dichloro-4-pyridyl)ethoxy]-1H-indazol-3-yl]pyrimidin-2-yl]piperazin-1-yl]-(4-methylpiperazin-1-yl)methanone] | 1 to 20 nM | 1 to 20 nM | 10 | 20 to 100 nM | > 300 nM | 20 to 100 nM | 1 to 20 nM | 1 to 20 nM | 1 to 20 nM | 1 to 20 nM | 1 to 20 nM | – | –
C[C@@H](Oc1ccc2[nH]nc(-c3ccc(N4CC5CC(C4)N5)nc3)c2c1)c1c(Cl)cncc1Cl [Example 16, 3-[6-(3,6-Diazabicyclo[3.1.1]heptan-3-yl)-3-pyridyl]-5-[(1R)-1-(3,5-dichloro-4-pyridyl)ethoxy]-1H-indazole] | 1 to 20 nM | 1 to 20 nM | 14 | – | – | 20 to 100 nM | 1 to 20 nM | 1 to 20 nM | 1 to 20 nM | 1 to 20 nM | 1 to 20 nM | 20 to 100 nM | > 300 nM
C[C@@H](Oc1ccc2[nH]nc(-c3cnc(N4CCN(C(=O)N(C)C)CC4)nc3)c2c1)c1c(Cl)cncc1Cl [Example 19, 4-[5-[5-[(1R)-1-(3,5-Dichloro-4-pyridyl)ethoxy]-1H-indazol-3-yl]pyrimidin-2-yl]-N,N-dimethyl-piperazine-1-carboxamide] | 1 to 20 nM | 1 to 20 nM | 15 | 1 to 20 nM | 100 to 300 nM | 100 to 300 nM | 100 to 300 nM | 1 to 20 nM | 1 to 20 nM | 1 to 20 nM | 1 to 20 nM | – | –
C[C@@H](Oc1ccc2[nH]nc(-c3ccc(N4CC5CC(C4)N5S(C)(=O)=O)nc3)c2c1)c1c(Cl)cncc1Cl [Example 20, 5-[(1R)-1-(3,5-dichloro-4-pyridyl)ethoxy]-3-[6-(6-methylsulfonyl-3,6-diazabicyclo[3.1.1]heptan-3-yl)-3-pyridyl]-1H-indazole] | 20 to 100 nM | 20 to 100 nM | 15 | – | – | 100 to 300 nM | 20 to 100 nM | 1 to 20 nM | 20 to 100 nM | 1 to 20 nM | 1 to 20 nM | 20 to 100 nM | > 300 nM
C[C@@H](Oc1ccc2[nH]nc(-c3ccc(N4CCNC5(CC5)C4)nc3)c2c1)c1c(Cl)cncc1Cl [Example 21, 3-[6-(4,7-diazaspiro[2.5]octan-7-yl)-3-pyridyl]-5-[(1R)-1-(3,5-dichloro-4-pyridyl)ethoxy]-1H-indazole] | 1 to 20 nM | 1 to 20 nM | 13 | 1 to 20 nM | 100 to 300 nM | 20 to 100 nM | 1 to 20 nM | 1 to 20 nM | 1 to 20 nM | 1 to 20 nM | 1 to 20 nM | – | –
C[C@@H](Oc1ccc2[nH]nc(-c3ccc(N4CCN(S(C)(=O)=O)C5(CC5)C4)nc3)c2c1)c1c(Cl)cncc1Cl [Example 22, 5-[(1R)-1-(3,5-dichloro-4-pyridyl)ethoxy]-3-[6-(4-methylsulfonyl-4,7-diazaspiro[2.5]octan-7-yl)-3-pyridyl]-1H-indazole] | 1 to 20 nM | 1 to 20 nM | 11 | 1 to 20 nM | 100 to 300 nM | 20 to 100 nM | 20 to 100 nM | 1 to 20 nM | 20 to 100 nM | 1 to 20 nM | 1 to 20 nM | – | –
C[C@@H](Oc1ccc2[nH]nc(-c3ccc(N4CCN(C(=O)N(C)C)C5(CC5)C4)nc3)c2c1)c1c(Cl)cncc1Cl [Example 23, (R)-7-(5-(5-(1-(3,5-dichloropyridin-4-yl)ethoxy)-1H-indazol-3-yl)pyridin-2-yl)-N,N-dimethyl-4,7-diazaspiro[2.5]octane-4-carboxamide] | 1 to 20 nM | 1 to 20 nM | 16 | 1 to 20 nM | 100 to 300 nM | 100 to 300 nM | > 300 nM | 20 to 100 nM | > 300 nM | > 300 nM | 100 to 300 nM | – | –
C[C@@H](Oc1ccc2[nH]nc(-c3ccc(N4CCN(C(N)=O)C5(CC5)C4)nc3)c2c1)c1c(Cl)cncc1Cl [Example 24, 7-[5-[5-[(1R)-1-(3,5-dichloro-4-pyridyl)ethoxy]-1H-indazol-3-yl]-2-pyridyl]-4,7-diazaspiro[2.5]octane-4-carboxamide] | 1 to 20 nM | 1 to 20 nM | 18 | 1 to 20 nM | 20 to 100 nM | 20 to 100 nM | 1 to 20 nM | 1 to 20 nM | 1 to 20 nM | 1 to 20 nM | 1 to 20 nM | – | –
C[C@@H](Oc1ccc2[nH]nc(-c3ccc(N4CCC5(CCCO5)CC4)nc3)c2c1)c1c(Cl)cncc1Cl [Example 26, 8-[5-[5-[(1R)-1-(3,5-dichloro-4-pyridyl)ethoxy]-1H-indazol-3-yl]-2-pyridyl]-1-oxa-8-azaspiro[4.5]decane] | 20 to 100 nM | 20 to 100 nM | 28 | 20 to 100 nM | > 300 nM | > 300 nM | 20 to 100 nM | 1 to 20 nM | 20 to 100 nM | 1 to 20 nM | 1 to 20 nM | – | –
C[C@@H](Oc1ccc2[nH]nc(-c3ccc(N4CCC5(CCNC5=O)CC4)nc3)c2c1)c1c(Cl)cncc1Cl [Example 27, 8-[5-[5-[(1R)-1-(3,5-dichloro-4-pyridyl)ethoxy]-1H-indazol-3-yl]-2-pyridyl]-2,8-diazaspiro[4.5]decan-1-one] | 1 to 20 nM | 1 to 20 nM | 24 | 1 to 20 nM | 100 to 300 nM | 100 to 300 nM | 1 to 20 nM | 1 to 20 nM | 20 to 100 nM | 1 to 20 nM | 1 to 20 nM | – | –
C[C@@H](Oc1ccc2[nH]nc(-c3ccc(N4CCC5(CCOC5)CC4)nc3)c2c1)c1c(Cl)cncc1Cl [Example 28, 8-[5-[5-[(1R)-1-(3,5-dichloro-4-pyridyl)ethoxy]-1H-indazol-3-yl]-2-pyridyl]-2-oxa-8-azaspiro[4.5]decane] | 1 to 20 nM | 1 to 20 nM | 22 | 1 to 20 nM | > 300 nM | 100 to 300 nM | 20 to 100 nM | 1 to 20 nM | 20 to 100 nM | 1 to 20 nM | 1 to 20 nM | – | –
C[C@@H](Oc1ccc2[nH]nc(-c3ccc(N4CCC5(CCN(C)C5)CC4)nc3)c2c1)c1c(Cl)cncc1Cl [Example 32, 8-[5-[5-[(1R)-1-(3,5-dichloro-4-pyridyl)ethoxy]-1H-indazol-3-yl]-2-pyridyl]-2-methyl-2,8-diazaspiro[4.5]decane] | 1 to 20 nM | 1 to 20 nM | 12 | 1 to 20 nM | 100 to 300 nM | 20 to 100 nM | 1 to 20 nM | 1 to 20 nM | 1 to 20 nM | 1 to 20 nM | 1 to 20 nM | – | –
